Experimental data taken from paper PMC7600264, “Quasi-Irreversible Inhibition of CYP2D6 by Berberine” (Pharmaceutics, 2020).
Read-outs that look alike come from different tables or passages of the source.

Tests used:
CYP2B6 = target: T1, CYP2B6 (Homo sapiens, UniProt P20813); assay: Direct CYP inhibition assay using pooled HLM; details: pooled HLM
T1 sequence (P20813 1-491): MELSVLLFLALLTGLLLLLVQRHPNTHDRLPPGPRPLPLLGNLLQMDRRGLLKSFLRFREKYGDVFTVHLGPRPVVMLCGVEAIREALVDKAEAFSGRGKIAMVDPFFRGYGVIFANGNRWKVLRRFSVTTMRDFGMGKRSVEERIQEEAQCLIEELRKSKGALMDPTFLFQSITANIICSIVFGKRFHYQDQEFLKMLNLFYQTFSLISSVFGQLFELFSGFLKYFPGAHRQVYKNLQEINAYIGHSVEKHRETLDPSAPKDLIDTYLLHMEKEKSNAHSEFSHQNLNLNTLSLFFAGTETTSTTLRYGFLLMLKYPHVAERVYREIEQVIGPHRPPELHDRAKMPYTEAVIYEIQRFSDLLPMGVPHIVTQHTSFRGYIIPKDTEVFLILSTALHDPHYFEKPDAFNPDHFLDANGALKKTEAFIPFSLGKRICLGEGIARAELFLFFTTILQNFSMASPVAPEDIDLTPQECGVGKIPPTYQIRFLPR
Experimental: (§1) The enzyme reactions were initiated by adding NADPH (1 mM), and the mixtures were incubated at 37 °C for 5 min in a shaking water bath (100 rpm). The reaction was terminated by adding ice-cold acetonitrile (ACN) containing CBZ (100 nM) and 4-methyl-umbelliferone (300 nM) as internal standards (IS).
(§2) The chromatographic separation was performed on an Agilent 1200 series HPLC system (Agilent Technologies, Santa Clara, CA, USA) equipped with an Atlantis^TM dC18 column (2.1 × 50 mm, 3 µm; Waters Corporation, Milford, MA, USA) with a SecuityGuard^TM C18 guard column (2.0 × 4.0 mm; Phenomenex, Torrance, CA, USA). The mobile phases consisted of double-deionized water (DDW) containing 0.1% (v/v) of formic acid (A) and ACN containing 0.1% (v/v) formic acid (B). […] The sample injection volume was 10 µL, and the total run time was 9.0 min. The column and auto-sampler compartments were maintained at 30 °C and 10 °C, respectively, throughout the analysis. The detection was performed using an API4000 Q-TRAP system equipped with a Turbo V Ion Spray^TM source (Applied Biosystems, Foster City, CA, USA). The operating conditions were optimized as follows: ionization voltage: 5500 V for positive-ion mode and −4500 V for negative-ion mode; ion source temperature: 550 °C; nebulizing gas flow: 50 L/min; auxiliary gas flow: 40 L/min; and curtain gas flow: 30 L/min. The samples were analyzed via multiple reaction monitoring (MRM) mode. […] The data acquisition and processing were performed using Analyst^TM software (version 1.5.2; Applied Biosystems, Foster City, CA, USA).

CYP2C9 = CYP2C9 (Homo sapiens, UniProt P11712); assay: Direct CYP inhibition assay using pooled HLM; details: pooled HLM
Experimental: as §1, §2

CYP2E1 = CYP2E1 (Homo sapiens, UniProt P05181); assay: Direct CYP inhibition assay using pooled HLM; details: pooled HLM
Experimental: as §1, §2

[1] = Metabolic stability and metabolite formation of BBR in pooled HLM; details: for Concentration in incubation mixture (elimination of BBR and formation of its metabolites): BBR 1 µM in pooled HLM with NADPH-generating system, mean ± SD
Experimental: To evaluate NADPH-dependent metabolism, BBR (1 µM) was incubated with pooled HLM (1 mg/mL) in the presence of the NADPH-regenerating system (1 mM of NADP^+, 5 mM of G6P, and 1 U/mL of G6PDH) to be a final volume of 200 µL. The reactions were quenched by adding the same volume of ice-cold ACN containing CBZ (100 nM) at 0, 7.5, 15, 30, 60, and 120 min of incubation. The incubation mixtures were centrifuged at 1000× g for 20 min at 4 °C, and the supernatants were analyzed by the LC-MS/MS system described in Section 2.2.
Meanwhile, to identify the known metabolites of BBR, an aliquot (5 µL) of the supernatant was injected into an accurate-MS system consisting of an Agilent 6530 Q-TOF LC/MS equipped with dual AJS ESI ion source (Agilent Technologies) and Agilent 1200 series HPLC system (Agilent Technologies). Chromatographic separations were performed on an Agilent Eclipse Plus C18 column (150 × 2.1 mm, 3.5 µm; Agilent Technologies) by gradient elution with a binary mobile phase consisting of DDW with 0.1% (v/v) formic acid (A) and ACN with 0.1% (v/v) formic acid (B) at a flow rate of 0.2 mL/min, where the mobile phase B was set as follows: 2% at 0 min, 20% at 15 min, and 30% at 20–25 min, followed by re-equilibration for 3 min.
In vitro metabolic stability parameters, including half-life (t1/2) and microsomal intrinsic clearance (CLint,mic), were determined according to our previous report [32]. The degradation t1/2 values of the microsomal stability studies were calculated using the following Equation (2):(2) t1/2=0.693/k, where k represents the first-order degradation rate constant. The k values were estimated by fitting a one-phase exponential decay model to the parent drug remaining (%) vs. incubation time plots using GraphPad Prism 5.0 (GraphPad Software Inc., San Diego, CA, USA).
The CLint,mic was determined using the in vitro half-life approach.

CYP2D6 [2] = target: T2, CYP2D6 (Homo sapiens, UniProt P10635); assay: Metabolism-dependent CYP2D6 inhibition assay (IC50 shift) using pooled HLM; details: pooled HLM; for MDI (metabolism-dependent inhibition) of CYP2D6 (in words): pre-incubation with NADPH
Experimental: Pre-incubation was performed in pooled HLM (0.2 mg/mL) added with BBR, THB, TFD, or DMB, or rhCYP2D6 (10 pmol/mL) added with BBR, with or without NADPH (1 mM) in phosphate buffer (0.1 M; pH 7.4) for 30 min. Then, the CYP2D6 substrate (5 µM of dextromethorphan) and NADPH (1 mM) were added to the mixture and incubated for another 10 min. All incubations were carried out at 37 °C in a shaking water bath (100 rpm) using eight-well tube strips placed in an 8 × 12 rack, where the final volume of each reaction mixture was 200 µL. […] The enzyme reactions were quenched by adding an aliquot (200 µL) of ice-cold ACN containing CBZ (100 nM) as an IS. The samples were centrifuged, and the concentration of CYP2D6 metabolite (i.e., dextrorphan, produced by O-demethylation of dextromethorphan) in supernatants were analyzed using the LC-MS/MS method described in Section 2.2.

CYP2A6 = target: T3, CYP2A6 (Homo sapiens, UniProt P11509); assay: Direct CYP inhibition assay using pooled HLM; details: pooled HLM
T3 sequence (P11509 1-494): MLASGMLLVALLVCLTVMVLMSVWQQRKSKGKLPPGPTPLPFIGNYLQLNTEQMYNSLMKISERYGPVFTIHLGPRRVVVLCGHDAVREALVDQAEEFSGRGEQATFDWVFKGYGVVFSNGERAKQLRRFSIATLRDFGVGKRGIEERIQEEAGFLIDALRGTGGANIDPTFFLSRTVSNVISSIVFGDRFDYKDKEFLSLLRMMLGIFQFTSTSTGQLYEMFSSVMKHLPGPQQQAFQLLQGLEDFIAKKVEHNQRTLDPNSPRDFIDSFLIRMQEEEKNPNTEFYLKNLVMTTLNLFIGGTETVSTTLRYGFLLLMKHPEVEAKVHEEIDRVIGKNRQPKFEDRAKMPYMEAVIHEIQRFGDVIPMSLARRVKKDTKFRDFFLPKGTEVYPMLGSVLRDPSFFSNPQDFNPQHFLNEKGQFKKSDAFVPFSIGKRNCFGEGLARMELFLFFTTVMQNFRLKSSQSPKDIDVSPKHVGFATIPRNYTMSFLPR
Experimental: as §1, §2

CYP2C19 = CYP2C19 (Homo sapiens, UniProt P33261); assay: Direct CYP inhibition assay using pooled HLM; details: pooled HLM
Experimental: as §1, §2

CYP1A2 = target: T4, CYP1A2 (Homo sapiens, UniProt P05177); assay: Direct CYP inhibition assay using pooled HLM; details: pooled HLM
T4 sequence (P05177 1-516): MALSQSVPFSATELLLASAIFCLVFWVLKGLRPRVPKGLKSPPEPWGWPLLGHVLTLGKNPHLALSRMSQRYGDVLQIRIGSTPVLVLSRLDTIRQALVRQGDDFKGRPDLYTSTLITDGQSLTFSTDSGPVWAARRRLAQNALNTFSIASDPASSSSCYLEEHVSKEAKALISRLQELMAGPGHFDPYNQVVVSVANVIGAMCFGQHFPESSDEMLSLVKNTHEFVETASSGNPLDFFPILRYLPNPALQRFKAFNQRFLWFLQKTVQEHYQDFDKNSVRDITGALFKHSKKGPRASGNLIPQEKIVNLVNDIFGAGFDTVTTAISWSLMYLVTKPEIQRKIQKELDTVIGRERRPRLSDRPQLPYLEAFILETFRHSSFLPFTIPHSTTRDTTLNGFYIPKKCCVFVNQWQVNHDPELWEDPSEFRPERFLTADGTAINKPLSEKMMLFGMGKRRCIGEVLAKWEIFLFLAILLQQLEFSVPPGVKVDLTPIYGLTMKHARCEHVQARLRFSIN
Experimental: as §1, §2

CYP2D6 [3] = target: T2, CYP2D6; assay: Direct CYP inhibition assay using pooled HLM
Experimental: as §1, §2

CYP2C8 = target: T5, CYP2C8 (Homo sapiens, UniProt P10632); assay: Direct CYP inhibition assay using pooled HLM; details: pooled HLM
T5 sequence (P10632 1-490): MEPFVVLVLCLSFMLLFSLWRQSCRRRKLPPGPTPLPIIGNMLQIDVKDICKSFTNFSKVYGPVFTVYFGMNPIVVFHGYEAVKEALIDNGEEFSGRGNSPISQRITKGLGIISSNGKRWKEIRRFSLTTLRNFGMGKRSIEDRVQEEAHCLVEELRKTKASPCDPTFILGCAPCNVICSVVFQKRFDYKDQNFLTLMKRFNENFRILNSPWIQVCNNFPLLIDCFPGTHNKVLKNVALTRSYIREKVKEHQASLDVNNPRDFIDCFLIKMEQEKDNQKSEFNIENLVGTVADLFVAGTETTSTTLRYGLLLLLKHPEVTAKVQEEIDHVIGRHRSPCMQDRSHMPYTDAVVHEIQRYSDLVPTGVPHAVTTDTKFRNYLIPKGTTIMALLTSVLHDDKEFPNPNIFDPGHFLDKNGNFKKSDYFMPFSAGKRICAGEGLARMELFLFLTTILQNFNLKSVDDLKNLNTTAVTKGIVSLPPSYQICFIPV
Experimental: as §1, §2

CYP3A4 = CYP3A4 (Homo sapiens, UniProt P08684); assay: Direct CYP inhibition assay using pooled HLM
Experimental: as §1, §2

[4] = human, pooled human liver microsomes

T2 sequence (P10635 whole entry): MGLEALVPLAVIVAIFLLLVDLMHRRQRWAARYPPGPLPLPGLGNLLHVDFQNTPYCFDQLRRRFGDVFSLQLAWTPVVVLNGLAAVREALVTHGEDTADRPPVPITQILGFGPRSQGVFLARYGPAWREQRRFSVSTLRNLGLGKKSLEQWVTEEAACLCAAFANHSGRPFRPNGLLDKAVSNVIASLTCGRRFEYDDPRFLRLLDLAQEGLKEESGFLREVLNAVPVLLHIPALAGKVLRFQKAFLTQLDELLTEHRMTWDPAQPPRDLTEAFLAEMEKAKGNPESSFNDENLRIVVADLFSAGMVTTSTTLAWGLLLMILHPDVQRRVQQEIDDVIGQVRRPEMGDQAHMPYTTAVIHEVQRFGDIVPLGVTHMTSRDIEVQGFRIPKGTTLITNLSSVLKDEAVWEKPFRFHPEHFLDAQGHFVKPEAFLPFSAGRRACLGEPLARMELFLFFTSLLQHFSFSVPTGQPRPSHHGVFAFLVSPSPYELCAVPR
Chain of CYP3A4 (P08684 whole entry): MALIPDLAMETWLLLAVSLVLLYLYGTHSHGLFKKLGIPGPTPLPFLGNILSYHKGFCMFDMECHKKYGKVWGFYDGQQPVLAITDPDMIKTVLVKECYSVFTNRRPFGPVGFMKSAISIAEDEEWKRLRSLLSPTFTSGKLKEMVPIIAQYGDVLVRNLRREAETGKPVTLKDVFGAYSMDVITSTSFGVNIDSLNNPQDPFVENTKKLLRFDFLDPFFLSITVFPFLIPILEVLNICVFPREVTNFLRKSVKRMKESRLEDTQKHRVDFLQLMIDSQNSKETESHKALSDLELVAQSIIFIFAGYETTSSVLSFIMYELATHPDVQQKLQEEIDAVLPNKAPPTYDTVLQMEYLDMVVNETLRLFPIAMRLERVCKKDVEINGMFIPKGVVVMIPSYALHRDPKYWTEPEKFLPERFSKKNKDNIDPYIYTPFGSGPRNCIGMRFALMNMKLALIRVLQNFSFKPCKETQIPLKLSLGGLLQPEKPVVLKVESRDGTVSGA
Chain of CYP2E1 (P05181 whole entry): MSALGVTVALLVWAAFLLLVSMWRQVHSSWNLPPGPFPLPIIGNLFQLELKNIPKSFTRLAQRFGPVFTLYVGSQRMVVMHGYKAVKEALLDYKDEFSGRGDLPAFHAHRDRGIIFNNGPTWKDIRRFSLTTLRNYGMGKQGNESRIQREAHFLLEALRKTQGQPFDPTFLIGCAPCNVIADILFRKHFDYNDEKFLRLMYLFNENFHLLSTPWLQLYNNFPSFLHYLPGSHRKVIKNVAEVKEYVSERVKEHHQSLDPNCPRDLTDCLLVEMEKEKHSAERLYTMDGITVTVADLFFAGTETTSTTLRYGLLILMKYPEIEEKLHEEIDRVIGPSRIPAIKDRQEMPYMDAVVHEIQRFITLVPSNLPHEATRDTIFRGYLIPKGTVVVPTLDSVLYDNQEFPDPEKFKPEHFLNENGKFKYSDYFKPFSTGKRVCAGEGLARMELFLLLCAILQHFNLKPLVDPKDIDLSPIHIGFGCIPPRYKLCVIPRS
Chain of CYP2C9 (P11712 whole entry): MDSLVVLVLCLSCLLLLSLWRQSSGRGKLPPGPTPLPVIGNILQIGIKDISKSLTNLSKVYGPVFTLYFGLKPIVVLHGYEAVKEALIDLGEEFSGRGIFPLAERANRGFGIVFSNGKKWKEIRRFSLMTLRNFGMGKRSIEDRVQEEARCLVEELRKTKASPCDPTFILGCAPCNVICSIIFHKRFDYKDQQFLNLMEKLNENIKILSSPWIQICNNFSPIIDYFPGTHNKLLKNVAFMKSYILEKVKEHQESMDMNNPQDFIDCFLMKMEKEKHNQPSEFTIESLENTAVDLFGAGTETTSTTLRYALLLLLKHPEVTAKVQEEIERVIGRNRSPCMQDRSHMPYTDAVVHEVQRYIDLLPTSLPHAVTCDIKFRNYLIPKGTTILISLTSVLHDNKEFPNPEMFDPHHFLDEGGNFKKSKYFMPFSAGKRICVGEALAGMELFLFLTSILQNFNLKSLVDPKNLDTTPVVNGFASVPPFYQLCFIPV
Chain of CYP2C19 (P33261 whole entry): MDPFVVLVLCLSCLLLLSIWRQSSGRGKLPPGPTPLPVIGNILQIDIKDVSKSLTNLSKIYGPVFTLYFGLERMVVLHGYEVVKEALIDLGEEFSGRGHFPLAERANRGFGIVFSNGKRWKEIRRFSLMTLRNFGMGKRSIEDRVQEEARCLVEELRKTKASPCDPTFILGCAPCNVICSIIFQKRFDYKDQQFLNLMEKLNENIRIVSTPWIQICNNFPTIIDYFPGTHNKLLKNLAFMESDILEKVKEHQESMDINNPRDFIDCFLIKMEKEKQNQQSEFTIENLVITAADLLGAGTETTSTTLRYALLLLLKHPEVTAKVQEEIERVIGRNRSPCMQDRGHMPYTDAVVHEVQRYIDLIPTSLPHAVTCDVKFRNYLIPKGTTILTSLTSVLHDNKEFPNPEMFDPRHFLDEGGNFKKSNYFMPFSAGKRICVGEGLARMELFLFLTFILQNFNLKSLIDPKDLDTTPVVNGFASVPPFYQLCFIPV

Q: For `COc1ccc2cc3[n+](cc2c1OC)CCc1cc2c(cc1-3)OCO2` [BBR, berberine], which “Inhibition of CYP2B6 (in words)” value (CYP2B6; up to 100 µM) is on record?
A: not markedly inhibited

Q: What about the “Inhibition of CYP2C9 (in words)” value (CYP2C9; up to 100 µM) of the same compound?
A: not markedly inhibited

Q: And the “Inhibition of CYP2E1 (in words)” value (CYP2E1; up to 100 µM)?
A: not markedly inhibited

Q: And the “Concentration in incubation mixture (elimination of BBR and formation of its metabolites)” value (“Concentration in incubation mixture” for short) ([1]; 0 min)?
A: 1049 ± 16 nM

Q: What about the “Concentration in incubation mixture” value ([1]; 7.5 min) of the same compound?
A: 807 ± 11 nM

Q: And the “Concentration in incubation mixture” value ([1]; 15 min)?
A: 713 ± 12 nM

Q: What about the “Concentration in incubation mixture” value ([1]; 30 min) of the same compound?
A: 539 ± 4 nM

Q: What about the “Concentration in incubation mixture” value ([1]; 60 min) of the same compound?
A: 313 ± 15 nM

Q: What about the “Concentration in incubation mixture” value ([1]; 120 min) of the same compound?
A: 147 ± 5 nM

Q: And the half-life at 1 µM [1, 4]?
A: 35.4 min

Q: What about the microsomal CLint at 1 µM [1, 4] of the same compound?
A: 7.82 µL/min/mg

Q: What about the “Metabolic stability in HLM (in words)” value ([1]; pooled HLM) of the same compound?
A: moderately stable

Q: What about the IC50 (CYP2D6 [2]; IC50 against CYP2D6, pre-incubation with NADPH, 30 min pre-incubation with NADPH) of the same compound?
A: 1.66 µM

Q: What about the IC50 (CYP2D6 [2]; IC50 against CYP2D6, pre-incubation without NADPH, 30 min pre-incubation without NADPH) of the same compound?
A: 12.4 µM

Q: And the “MDI (metabolism-dependent inhibition) of CYP2D6 (in words)” value (CYP2D6 [2])?
A: exhibited MDI

Q: And the “Inhibition of CYP2A6 (in words)” value (CYP2A6; up to 100 µM)?
A: not markedly inhibited

Q: What about the “Inhibition of CYP2C19 (in words)” value (CYP2C19; up to 100 µM) of the same compound?
A: not markedly inhibited

Q: And the “Inhibition of CYP1A2 (in words)” value (CYP1A2; up to 100 µM)?
A: not markedly inhibited

Q: What about the IC50 (CYP2D6 [3]) of the same compound?
A: 11.9 µM

Q: What about the “Inhibition of CYP2C8 (in words)” value (CYP2C8; up to 100 µM) of the same compound?
A: not markedly inhibited

Q: What about the “Inhibition of CYP3A4 (in words)” value (CYP3A4; up to 100 µM, substrates MDZ and TST) of the same compound?
A: not markedly inhibited

Q: With `COc1ccc2cc3[n+](cc2c1OC)CCc1cc(O)c(O)cc1-3` [DMB, demethyleneberberine] as the compound, how does the IC50 (CYP2B6; read-out: IC50 CYP2B6, direct inhibition, 95% confidence intervals in parentheses) read?
A: > 100 µM

Q: What about the IC50 (CYP2C9; read-out: IC50 CYP2C9, direct inhibition, 95% confidence intervals in parentheses) of the same compound?
A: > 100 µM

Q: And the IC50 (CYP2E1; read-out: IC50 CYP2E1, direct inhibition, 95% confidence intervals in parentheses)?
A: 7.7 µM

Q: And the “Concentration in incubation mixture” value ([1]; 0 min)?
A: 6.1 ± 0.1 nM

Q: What about the “Concentration in incubation mixture” value ([1]; 7.5 min) of the same compound?
A: 24.1 ± 0.3 nM

Q: What about the “Concentration in incubation mixture” value ([1]; 15 min) of the same compound?
A: 38.1 ± 0.5 nM

Q: And the “Concentration in incubation mixture” value ([1]; 30 min)?
A: 52.6 ± 1.9 nM

Q: And the “Concentration in incubation mixture” value ([1]; 60 min)?
A: 64.3 ± 1.6 nM

Q: And the “Concentration in incubation mixture” value ([1]; 120 min)?
A: 75.0 ± 1.0 nM

Q: And the “MDI (metabolism-dependent inhibition) of CYP2D6 (in words)” value (CYP2D6 [2])?
A: not

Q: And the IC50 (CYP2D6 [2]; read-out: IC50 against CYP2D6, pre-incubation with NADPH, 30 min pre-incubation with NADPH)?
A: 54.9 µM

Q: What about the IC50 (CYP2D6 [2]; read-out: IC50 against CYP2D6, pre-incubation without NADPH, 30 min pre-incubation without NADPH) of the same compound?
A: 34.7 µM

Q: And the IC50 (CYP2A6; read-out: IC50 CYP2A6, direct inhibition, 95% confidence intervals in parentheses)?
A: > 100 µM

Q: What about the IC50 (CYP2C19; read-out: IC50 CYP2C19, direct inhibition, 95% confidence intervals in parentheses) of the same compound?
A: > 100 µM

Q: What about the IC50 (CYP1A2; read-out: IC50 CYP1A2, direct inhibition, 95% confidence intervals in parentheses) of the same compound?
A: > 100 µM

Q: What about the IC50 (CYP2D6 [3]; read-out: IC50 CYP2D6, pooled HLM, direct inhibition, substrate dextromethorphan, 95% confidence intervals in parentheses) of the same compound?
A: 32 µM

Q: And the IC50 (CYP2C8; read-out: IC50 CYP2C8, direct inhibition, 95% confidence intervals in parentheses)?
A: > 100 µM

Q: And the IC50 (CYP3A4; read-out: IC50 CYP3A4 (MDZ), direct inhibition, substrate MDZ, 95% confidence intervals in parentheses)?
A: 66 µM

Q: What about the IC50 (CYP3A4; read-out: IC50 CYP3A4 (TST), direct inhibition, substrate TST, 95% confidence intervals in parentheses) of the same compound?
A: 7.3 µM
